{
  "source": "patent EP0010667A1",
  "about": "“Cepham compounds, pharmaceutical compositions containing them and processes for the preparation thereof and of known cephem compounds” (FUJISAWA PHARMACEUTICAL CO., LTD., priority 1978, dated 1980)",
  "key": {"Klebsiella pneumoniae 20": {"system": "Klebsiella pneumoniae 20", "assay": "In vitro antibacterial activity, two-fold agar-plate dilution method", "type": "cell-based", "settings": "heart infusion agar (HI-agar), incubated at 37°C for 20 hours", "experimental": "(§1) In vitro antibacterial activity was determined by the two-fold agar-plate dilution'method as described below. One loopful of an overnight culture of each test strain in Trypticase soy broth was streaked on heart infusion agar (HI-agar) containing graded concentration of the test compound and incubated at 37°C for 20 hours. The minimal inhibitory concentration (MIC) was expressed in µg/m1."}, "Proteus mirabilis 18": {"system": "Proteus mirabilis 18", "assay": "In vitro antibacterial activity, two-fold agar-plate dilution method", "type": "cell-based", "settings": "heart infusion agar (HI-agar), incubated at 37°C for 20 hours", "experimental": "as §1"}},
  "data": [
    {"compound": "CO/N=C(\\C(=O)NC1C(=O)N2C(C(=O)O)C(=COC(C)=O)CSC12)c1csc(N)n1", "note": "(stereo not drawn) [Test compound, 7-[2-(2-Aminothiazol-4-yl)-2-methoxyimino-acetamido]-3-acetoxymethylenecepham-4-carboxylic acid (syn isomer)]", "values": [
      {"measurement": "MIC", "setting": "Klebsiella pneumoniae 20", "result": 6.25, "unit": "mg/L"},
      {"measurement": "MIC", "setting": "Proteus mirabilis 18", "result": 6.25, "unit": "mg/L"}
    ]}
  ]
}
